Results: patent US10330683B2, “Mutant smoothened and methods of using the same” (Genentech, Inc., priority 2015, dated 2019)
“Also recorded” adds a separate entry of the source.

Tests used:
[1] = tested on: SMO-S387N; conditions: cited from earlier work
[2] = tested on: SMO-L221R; conditions: cited from earlier work
[3] = tested on: SMO-N219D; conditions: cited from earlier work
[4] = tested on: SMO-D384N; conditions: cited from earlier work
[5] = biological target: T1, SMO-I408V (Homo sapiens, UniProt Q99835, I408V); test: [3H]-vismodegib binding to HEK-293 cells transfected with SMO constructs; conditions: 5 nM [3H]-vismodegib, cell surface levels similar to SMO-WT, FIG. 12B
T1 construct: expressed in transfected cells; host or cells: HEK-293 cells
Description: (§1) SMO mutants were generated in pRK5-SMO vectors as described (Dijkgraaf et al., 2011; Yauch et al., 2009) and were either utilized in Gli-luciferase reporter assays as described (Dijkgraaf et al., 2011) or cloned into lentiviral vectors for transduction of primary CGNP cultures. Proliferation was assayed using methyl-[3H]-thymidine incorporation (Kool et al., 2014).
(§2) 2×10E6 HEK-293 cells were seeded into 10-cm plates and transfected 16 hours later with 3 μg of either empty vector or SMO expression construct using GeneJuice (Novagen). Cells were harvested 40 hours later in PBS with 1 mM EDTA and fixed in PBS with 4% PFA for 10 minutes at room temperature (RT), after which they were washed 3× in PBS with 1 mM EDTA and plated into 96-well plates at 100,000 cells per well. […] of MicroScint fluid (Perkin Elmer) was added per well and counts per minute were assessed using a PerkinElmer TopCount NXT. All samples were analyzed in triplicate.

[6] = tested on: activating SMO mutants; test: as above; parameters: species or system human; conditions: all activating mutants tested; cell surface expression comparable to SMO-WT; FIG. 15C
Description: as §1, §2

[7] = tested on: SMO-E518K and E518A; conditions: cited from earlier work
[8] = tested on: SMO-A459V expressing CGNPs; test: methyl-[3H]-thymidine incorporation (proliferation) of virally transduced PPT CGNPs after removal of SHH; type: cell-based, mice; conditions: high concentrations of vismodegib, FIGS. 14D and 15E
Source text: (§3) It has previously been noted that Hh-driven tumor cells rapidly lose their Hh pathway dependence during culturing (Sasai et al., 2006). However, CGNPs proliferate in vivo in a Hh dependent manner and maintain their Hh pathway dependence in culture for a finite period (Wechsler-Reya and Scott, 1999). CGNPs isolated from Ptch1loxp/loxp Tp53loxp/loxp Rosa26LSL-tdTomato (PPT) pups were infected with lentiviral constructs expressing a SMO variant together with an enhanced green fluorescent protein (eGFP)-Cre fusion protein (FIG. 12C). The Cre recombinase induces loss of Ptch1 and thus ensures that only transduced CGNPs can proliferate in the absence of exogenous Sonic hedgehog ligand (SHH; FIG. 11D). […] Proliferation by methyl-[3H]-thymidine incorporation was monitored, while Cre-dependent tandem dimer (td) Tomato expression enabled visualization and quantification of infected cells.
(§4) Cerebella from post-natal day 5-7 Ptch1^loxp/loxp Rosa26^LSLtdTomato Tp53^loxp/loxp mice were dissociated in 0.05% Trypsin for 10 min at 37° C. Cells were collected by centrifugation at 514×g for 10 min at 4° C., resuspended in CGNP media (Neurobasal medium (Life Technologies) containing 1×B27 (without vitamin A; Life Technologies), 0.45% glucose (Sigma Aldrich), 25 mM KCl, 0.4% bovine serum albumin (Sigma Aldrich), 2 mM glutamine, 100 U/ml Penicillin (Life Technologies), 100 μg/ml Streptomycin (Life Technologies), 200 ng/ml octylated recombinant SHH) and filtered through a 0.45 μm filter (Falcon). Cells were plated in poly-D-lysine coated 6-well plates (Corning) at 5×10E5 cells/well and infected with lentivirus at a multiplicity of infection (MOI) of 1. […]
(§5) To examine the effects of HPIs on proliferation, virally transduced CGNPs were plated in poly-D-lysine-coated 96-well plates (Corning) at 25,000 cells/well in CGNP media without SHH. […] Cells were harvested onto 96-well filter plates (Perkin Elmer) using a Filtermate Cell Harvester (Perkin Elmer), and incorporated radioactivity was quantified by liquid scintillation spectrophotometry on a TopCount NXT (PerkinElmer).

[9] = tested on: SMOW535L expressing CGNPs; test: as above; type: cell-based, mice; conditions: high concentrations of vismodegib, FIGS. 14D and 15E
Source text: as §3, §4, §5

[10] = tested on: SMO-T241M expressing CGNPs; test: as above; type: cell-based, mice; conditions: high concentrations of vismodegib, FIGS. 14D and 15E
Source text: as §3, §4, §5

[11] = tested on: medulloblastoma; conditions: initial response; no durable response, relapse of the tumor; cited from earlier work
[12] = tested on: metastatic and locally advanced BCC; conditions: cited from earlier work
[13] = biological target: T2, SMO-D384N (Homo sapiens, UniProt Q99835, D384N); test: Gli-luciferase based Hh reporter assay in C3H10T½ cells transfected with SMO constructs; type: cell-based; conditions: 1 μM vismodegib, FIG. 13C
T2 construct: expressed in transfected cells; host or cells: C3H10T½ cells (mouse)
Description: as §1
(§6) C3H10T½ cells (ATCC) were seeded into six-well plates at 1.75×10E5 cells/well in DMEM High Glucose with 4 mM glutamine, 10 mM Hepes pH 7.2 and 10% FBS. After 16 h cells were transfected with 400 ng of expression construct, 400 ng of 9×-Gli-BS and 200 ng of pRL-TK per well using GeneJuice Transfection Reagent (Novagen). For the PTCH1 inhibition experiments, cells were transfected with 200 ng SMO expression construct and an additional 200 ng of DNA containing varying ratios of PTCH1 to empty vector. Six hours later, cells from one well were trypsinized and redistributed over four wells of a 12-well plate. After 16 hours the FBS content of the culture medium was reduced to 0.5% to induce formation of primary cilia, and small molecule Hh inhibitors were added at indicated concentrations. Firefly luciferase activity was determined 24 hours later with the Dual-Glo Luciferase Assay System (Promega) and read using a Wallac EnVision plate reader (Perkin Elmer). Values were divided by renilla luciferase activities to normalize for transfection efficiency. Individual experiments were carried out in duplicate or triplicate and repeated at least once. Dose response data were fit to a 4-parameter equation in GraphPad Prism: […]
(§7) The top and bottom (B) values were constrained to be […] for each sample. ‘H’ is the Hill Slope.

[14] = biological target: T3, SMO-N219D (Homo sapiens, UniProt Q99835, N219D); test: as above; type: cell-based; conditions: 1 μM vismodegib, FIG. 13C
T3 construct: expressed in transfected cells; host or cells: C3H10T½ cells (mouse)
Description: as §1, §6, §7

[15] = biological target: T4, SMO-S387N (Homo sapiens, UniProt Q99835, S387N); test: as above; type: cell-based; conditions: 1 μM vismodegib, FIG. 13C
T4 construct: expressed in transfected cells; host or cells: C3H10T½ cells (mouse)
Description: as §1, §6, §7

[16] = biological target: T5, SMO-A459V (Homo sapiens, UniProt Q99835, A459V); test: as above; type: cell-based, mouse; conditions: GLI1 luciferase reporter, FIGS. 5A-5C
T5 construct: expressed in transfected cells; host or cells: C3H10T½ cells (mouse)
Description: as §1
as §6, with “Elmer).” for “Elmer). Values were divided by renilla luciferase activities to normalize for transfection efficiency. Individual experiments were carried out in duplicate or triplicate and repeated at least once. Dose response data were fit to a 4-parameter equation in GraphPad Prism:”

[17] = tested on: SMO-D473 mutants (all aa except P); conditions: cited from earlier work
[18] = biological target: SMO-D473H (Homo sapiens, UniProt Q99835, D473H); conditions: cited from earlier work
[19] = biological target: SMO-L515A (Homo sapiens, UniProt Q99835, L515A); conditions: L515A expressed, activating; 1 mM vismodegib; cited from earlier work
[20] = tested on: PPT CGNPs infected with SMO DBP mutations; test: methyl-[3H]-thymidine incorporation (proliferation) of virally transduced PPT CGNPs after removal of SHH; type: cell-based, mice; conditions: all DBP mutations; high levels of vismodegib (>1 μM); FIG. 12D
Source text: as §3, with “cells. This system also enabled better model patient genetics because most of the SMO mutations were identified in tumors that harbored TP53 mutations and were driven by loss of PTCH1. […] It was confirmed that CGNPs were infected at similar frequencies by fluorescence-activated cell sorting (FACS) analysis for Cre-dependent tdTomato reporter expression, and that the SMO variants were expressed at equivalent levels by quantitative reverse transcription (qRT) PCR.” for “cells.”
(§8) Cerebella from post-natal day 5-7 Ptch1^loxp/loxp Rosa26^LSLtdTomato Tp53^loxp/loxp mice were dissociated in 0.05% Trypsin for 10 min at 37° C. Cells were collected by centrifugation at 514×g for 10 min at 4° C., resuspended in CGNP media (Neurobasal medium (Life Technologies) containing 1×B27 (without vitamin A; Life Technologies), 0.45% glucose (Sigma Aldrich), 25 mM KCl, 0.4% bovine serum albumin (Sigma Aldrich), 2 mM glutamine, 100 U/ml Penicillin (Life Technologies), 100 μg/ml Streptomycin (Life Technologies), 200 ng/ml octylated recombinant SHH) and filtered through a 0.45 μm filter (Falcon). Cells were plated in poly-D-lysine coated 6-well plates (Corning) at 5×10E5 cells/well and infected with lentivirus at a multiplicity of infection (MOI) of 1. After 24 hr, cells were harvested by trypsinization, collected in CGNP media and replated for downstream applications.
(§9) To examine the effects of HPIs on proliferation, virally transduced CGNPs were plated in poly-D-lysine-coated 96-well plates (Corning) at 25,000 cells/well in CGNP media without SHH. […] After 24 hr, cells were pulsed with 1 μCi/ml methyl-[^3H]-thymidine (Amersham/GE Healthcare) and cultured for an additional 16-24 hr. Cells were harvested onto 96-well filter plates (Perkin Elmer) using a Filtermate Cell Harvester (Perkin Elmer), and incorporated radioactivity was quantified by liquid scintillation spectrophotometry on a TopCount NXT (PerkinElmer).

[21] = tested on: PPT CGNPs infected with SMO-C469Y; test: as above; type: cell-based, mice; conditions: 5 μM vismodegib
Source text: as §3, with “cells. This system also enabled better model patient genetics because most of the SMO mutations were identified in tumors that harbored TP53 mutations and were driven by loss of PTCH1. […] It was confirmed that CGNPs were infected at similar frequencies by fluorescence-activated cell sorting (FACS) analysis for Cre-dependent tdTomato reporter expression, and that the SMO variants were expressed at equivalent levels by quantitative reverse transcription (qRT) PCR.” for “cells.”
as §8, §9

[22] = tested on: PPT CGNPs infected with SMO-WT and Cre; test: as above; type: cell-based, mice
Source text: as §3, with “cells. This system also enabled better model patient genetics because most of the SMO mutations were identified in tumors that harbored TP53 mutations and were driven by loss of PTCH1. […] It was confirmed that CGNPs were infected at similar frequencies by fluorescence-activated cell sorting (FACS) analysis for Cre-dependent tdTomato reporter expression, and that the SMO variants were expressed at equivalent levels by quantitative reverse transcription (qRT) PCR.” for “cells.”
as §8, §9

[23] = tested on: PPT CGNPs expressing vismodegib-resistant SMO mutants; test: as above; type: cell-based, mice; conditions: 1 μM JQ1; FIG. 16B
Source text: as §3, with “cells. This system also enabled better model patient genetics because most of the SMO mutations were identified in tumors that harbored TP53 mutations and were driven by loss of PTCH1. […] It was confirmed that CGNPs were infected at similar frequencies by fluorescence-activated cell sorting (FACS) analysis for Cre-dependent tdTomato reporter expression, and that the SMO variants were expressed at equivalent levels by quantitative reverse transcription (qRT) PCR.” for “cells.”
as §8, §9

T2 sequence (Q99835 28-787 D384N): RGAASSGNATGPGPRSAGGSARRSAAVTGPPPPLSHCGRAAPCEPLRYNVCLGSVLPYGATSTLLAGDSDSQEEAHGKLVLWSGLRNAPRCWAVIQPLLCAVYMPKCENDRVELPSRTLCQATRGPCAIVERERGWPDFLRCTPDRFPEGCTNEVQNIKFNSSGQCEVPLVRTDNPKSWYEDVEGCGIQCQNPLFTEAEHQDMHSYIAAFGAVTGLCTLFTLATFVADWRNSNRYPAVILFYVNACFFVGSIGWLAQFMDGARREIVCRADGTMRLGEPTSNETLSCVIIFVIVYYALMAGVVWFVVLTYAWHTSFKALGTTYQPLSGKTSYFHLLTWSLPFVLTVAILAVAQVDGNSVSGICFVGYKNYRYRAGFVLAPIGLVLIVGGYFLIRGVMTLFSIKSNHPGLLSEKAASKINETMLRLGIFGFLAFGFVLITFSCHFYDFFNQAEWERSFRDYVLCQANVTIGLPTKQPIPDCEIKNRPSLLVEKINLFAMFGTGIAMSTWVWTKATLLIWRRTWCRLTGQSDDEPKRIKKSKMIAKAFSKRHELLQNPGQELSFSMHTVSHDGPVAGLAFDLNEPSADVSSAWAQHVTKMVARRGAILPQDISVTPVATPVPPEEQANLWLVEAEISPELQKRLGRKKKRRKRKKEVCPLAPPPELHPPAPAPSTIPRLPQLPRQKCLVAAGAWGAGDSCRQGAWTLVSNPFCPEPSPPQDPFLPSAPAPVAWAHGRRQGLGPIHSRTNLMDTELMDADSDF
T4 sequence (Q99835 28-787 S387N): as the sequence (Q99835 28-787 D384N) above, with N357D, S360N counted along it
T3 sequence (Q99835 28-787 N219D): as the sequence (Q99835 28-787 D384N) above, with N192D, N357D counted along it
T1 sequence (Q99835 28-787 I408V): as the sequence (Q99835 28-787 D384N) above, with N357D, I381V counted along it
SMO-L515A, sequence (Q99835 28-787 L515A): as the sequence (Q99835 28-787 D384N) above, with N357D, L488A counted along it
SMO-D473H, sequence (Q99835 28-787 D473H): as the sequence (Q99835 28-787 D384N) above, with N357D, D446H counted along it
T5 sequence (Q99835 28-787 A459V): as the sequence (Q99835 28-787 D384N) above, with N357D, A432V counted along it

Cc1c(C(=O)Nc2ccc(N3C[C@@H](C)O[C@@H](C)C3)nc2)cccc1-c1ccc(OC(F)(F)F)cc1 [LDE-225]
sensitivity to LDE-225 [1]: S387N reduced
sensitivity to LDE-225 [2]: L221R reduced
sensitivity to LDE-225 [3]: N219D reduced
sensitivity to LDE-225 [4]: D384N reduced

CS(=O)(=O)c1ccc(C(=O)Nc2ccc(Cl)c(-c3ccccn3)c2)c(Cl)c1 [vismodegib]
binding of [3H]-labeled vismodegib [5]: impaired
vismodegib binding [6]: impaired
sensitivity to vismodegib [7]: reduced sensitivity to
proliferation in the presence of vismodegib [8]: continued to proliferate
proliferation in the presence of vismodegib [9]: continued to proliferate
proliferation in the presence of vismodegib [10]: continued to proliferate
response of a patient to treatment [11]: dramatic response
clinical response of BCC patients treated with vismodegib ([12]; majority of BCC patients, complete and partial responses): clinical benefit
advanced BCC patients that develop resistance to vismodegib ([12]; within the first year of treatment, preliminary estimate): up to 20%
sensitivity to vismodegib compared to SMO-WT [13]: reduced sensitivity; also recorded: D384N reduced
sensitivity to vismodegib compared to SMO-WT [14]: reduced sensitivity; also recorded: N219D reduced
sensitivity to vismodegib compared to SMO-WT [15]: reduced sensitivity; also recorded: S387N reduced
sensitivity to vismodegib [16]: decreased sensitivity
sensitivity to vismodegib [17]: reduce sensitivity to
drug binding in vitro [18]: abrogate drug binding
inhibition by vismodegib [19]: activating, sensitive
proliferation in the presence of vismodegib [20]: continuing to proliferate
proliferation in the presence of vismodegib [21]: continued to proliferate at near untreated levels
IC50 ([22]; Mus musculus, SMO-WT and Cre, FIG. 12D): ~22 nM
vismodegib concentration at which proliferation was maximally inhibited ([22]; SMO-WT and Cre): 100 nM

Cc1sc2c(c1C)C(c1ccc(Cl)cc1)=N[C@@H](CC(=O)OC(C)(C)C)c1nnc(C)n1-2 [JQ1]
proliferation of PPT CGNPs expressing vismodegib-resistant SMO mutants [23]: reduced proliferation
residual proliferation in SMO-WT ([22]; 1 μM JQ1 compared with 1 μM vismodegib, FIG. 16B): less residual proliferation
